Data as given in patent publication US20250122223A1, “HETEROCYCLIC COMPOUNDS AS UBIQUITIN SPECIFIC PROTEASE 7 INHIBITORS” (ALMAC DISCOVERY LIMITED, priority 2022, published 2025).
Like-named read-outs stand apart in the source and are kept apart here.

Target: USP7 (Homo sapiens (Human), UniProt Q93009)
Assay: USP7 fluorescence polarisation (FP) assay with ubiquitin-Lys-TAMRA substrate
Assay type: biochemical
Details: biochemical inhibition
[1] = read-out: USP7 IC50 activity (Table 3a, classes)
[2] = unit not given in Table 3b (Table 1 and key of Table 3a use μM), read-out: USP7 IC50 activity (Table 3b)

Sequence of USP7 (Q93009 whole entry): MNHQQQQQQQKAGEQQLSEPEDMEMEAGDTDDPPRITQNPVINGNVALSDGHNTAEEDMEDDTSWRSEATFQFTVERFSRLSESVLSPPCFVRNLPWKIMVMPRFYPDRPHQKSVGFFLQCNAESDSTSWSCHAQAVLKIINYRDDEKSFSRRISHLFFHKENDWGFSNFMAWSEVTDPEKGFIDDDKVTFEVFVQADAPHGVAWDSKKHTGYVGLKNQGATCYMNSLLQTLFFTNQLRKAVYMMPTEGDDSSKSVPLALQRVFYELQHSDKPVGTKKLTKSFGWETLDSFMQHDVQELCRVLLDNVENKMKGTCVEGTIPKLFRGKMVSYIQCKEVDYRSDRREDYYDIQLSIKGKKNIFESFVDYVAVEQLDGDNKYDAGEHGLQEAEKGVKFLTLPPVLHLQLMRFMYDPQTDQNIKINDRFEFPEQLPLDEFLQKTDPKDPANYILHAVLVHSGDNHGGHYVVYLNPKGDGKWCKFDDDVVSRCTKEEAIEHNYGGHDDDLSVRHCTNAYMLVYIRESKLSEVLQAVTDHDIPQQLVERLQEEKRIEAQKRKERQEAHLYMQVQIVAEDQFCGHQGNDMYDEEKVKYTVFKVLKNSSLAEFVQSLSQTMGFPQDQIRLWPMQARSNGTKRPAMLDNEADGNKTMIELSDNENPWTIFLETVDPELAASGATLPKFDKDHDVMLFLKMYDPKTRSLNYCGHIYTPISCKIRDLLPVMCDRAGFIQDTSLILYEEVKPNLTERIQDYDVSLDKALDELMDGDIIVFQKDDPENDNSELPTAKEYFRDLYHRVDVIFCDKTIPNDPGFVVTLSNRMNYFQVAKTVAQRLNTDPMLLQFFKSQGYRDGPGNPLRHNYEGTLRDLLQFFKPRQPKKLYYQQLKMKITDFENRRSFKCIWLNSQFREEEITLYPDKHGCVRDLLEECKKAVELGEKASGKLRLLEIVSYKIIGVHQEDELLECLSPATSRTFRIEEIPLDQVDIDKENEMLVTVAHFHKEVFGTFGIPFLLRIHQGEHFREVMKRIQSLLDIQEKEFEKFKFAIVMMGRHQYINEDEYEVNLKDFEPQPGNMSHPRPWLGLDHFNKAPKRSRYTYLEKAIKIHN

Compound `CC1(C(=O)N2CCC(O)(Cn3cnc4c(cc(Cl)n4-c4ccc(C5COCC6(CC6)N5)cc4)c3=O)CC2)CC1` (stereo not drawn) [Example 19, 7-(4-(7-Oxa-4-azaspiro[2.5]octan-5-yl)phenyl)-6-chloro-3-((4-hydroxy-1-(1-methylcyclopropane-1-carbonyl)piperidin-4-yl)methyl)-3,7-dihydro-4H-pyrrolo[2,3-d]pyrimidin-4-one] has an IC50 [1] of 0.25 to 2 µM and an IC50 [2] of 0.372 µM.
With `O=C(c1ccc(Cl)cc1)N1CCC(O)(Cn2cnc3c(cc(Cl)n3-c3ccc([C@@H]4COC5(CCC5)CN4)cc3)c2=O)CC1` (racemic) [Example 44, 7-(4-(5-Oxa-8-azaspiro[3.5]nonan-7-yl)phenyl)-6-chloro-3-((1-(4-chlorobenzoyl)-4-hydroxypiperidin-4-yl)methyl)-3,7-dihydro-4H-pyrrolo[2,3-d]pyrimidin-4-one] the IC50 [1] was 0.1 to 0.25 µM and the IC50 [2] was 0.113 µM.
Work on `O=C(C[C@H](c1ccccc1)C(F)(F)F)N1CCC(O)(Cn2cnc3c(cc(Cl)n3-c3ccc([C@H]4COCCN4)c(Cl)c3)c2=O)CC1` (mixture of isomers) [Example 86, 6-Chloro-7-(3-chloro-4-((S)-morpholin-3-yl)phenyl)-3-((4-hydroxy-1-((R)-4,4,4-trifluoro-3-phenylbutanoyl)piperidin-4-yl)methyl)-3,7-dihydro-4H-pyrrolo[2,3-d]pyrimidin-4-one and 6-chloro-7-(3-chloro-4-((R)-morpholin-3-yl)phenyl)-3-((4-hydroxy-1-((R)-4,4,4-trifluoro-3-phenylbutanoyl)piperidin-4-yl)methyl)-3,7-dihydro-4H-pyrrolo[2,3-d]pyrimidin-4-one (1:1)] yielded an IC50 [1] of 0.1 to 0.25 µM and an IC50 [2] of 0.134 µM.
`O=C(c1ccc(Cl)cc1)N1CCC(O)(Cn2cnc3c(cc(Cl)n3-c3ccc([C@@H]4CO[C@@H](C5CC5)CN4)cc3)c2=O)CC1` (single isomer, unassigned) [Example 64] showed an IC50 [1] of 0.1 to 0.25 µM and an IC50 [2] of 0.11 µM.
For `CC1(C(=O)N2CCC(O)(Cn3cnc4c(cc(Cl)n4-c4ccc([C@H]5COCCN5)cc4)c3=O)CC2)CC1` (single isomer, unassigned) [Example 70], the IC50 [1] was < 0.1 µM and the IC50 [2] was 0.022 µM.
`C[C@H]1CN[C@H](c2ccc(-n3c(Cl)cc4c(=O)n(CC5(O)CCN(C(=O)c6cccc(Cl)c6)CC5)cnc43)cc2)CO1` [Example 35, 6-Chloro-3-((1-(3-chlorobenzoyl)-4-hydroxypiperidin-4-yl)methyl)-7-(4-((3R,6S)-6-methylmorpholin-3-yl)phenyl)-3,7-dihydro-4H-pyrrolo[2,3-d]pyrimidin-4-one] gave an IC50 [1] of 0.1 to 0.25 µM and an IC50 [2] of 0.224 µM.
Work on `C[C@H]1COC[C@@H](c2ccc(-n3c(Cl)cc4c(=O)n(CC5(O)CCN(C(=O)c6ccc(Cl)cc6)CC5)cnc43)cc2)N1` (single isomer, unassigned) [Example 26] yielded an IC50 [1] of 0.1 to 0.25 µM and an IC50 [2] of 0.161 µM.
`C[C@H]1CN[C@@H](c2ccc(-n3c(Cl)cc4c(=O)n(CC5(O)CCN(C(=O)c6ccc(Cl)cc6)CC5)cnc43)cc2)CO1` (single isomer, unassigned) [Example 68] gave an IC50 [1] of 0.25 to 2 µM and an IC50 [2] of 0.702 µM.
For `C[C@@H]1CN[C@@H](c2ccc(-n3c(Cl)cc4c(=O)n(CC5(O)CCN(C(=O)C6(C)CC6)CC5)cnc43)cc2)CO1` [Example 107, 6-Chloro-3-((4-hydroxy-1-(1-methylcyclopropane-1-carbonyl)piperidin-4-yl)methyl)-7-(4-((3S,6R)-6-methylmorpholin-3-yl)phenyl)-3,7-dihydro-4H-pyrrolo[2,3-d]pyrimidin-4-one], the IC50 [1] was < 0.1 µM and the IC50 [2] was 0.093 µM.
`Cc1cc(-n2c(Cl)cc3c(=O)n(CC4(O)CCN(C(=O)c5ccc(C(F)F)cc5)CC4)cnc32)ccc1[C@H]1CO[C@H](C)CN1` [Example 92, 6-Chloro-3-((1-(4-(difluoromethyl)benzoyl)-4-hydroxypiperidin-4-yl)methyl)-7-(3-methyl-4-((3S,6R)-6-methylmorpholin-3-yl)phenyl)-3,7-dihydro-4H-pyrrolo[2,3-d]pyrimidin-4-one] showed an IC50 [1] of 0.1 to 0.25 µM and an IC50 [2] of 0.111 µM.
With `CC1(C)COCC(c2ccc(-n3c(Cl)cc4c(=O)n(CC5(O)CCN(C(=O)c6ccc(Cl)cc6)CC5)cnc43)cc2)N1` (stereo not drawn) [Example 16, 6-Chloro-3-((1-(4-chlorobenzoyl)-4-hydroxypiperidin-4-yl)methyl)-7-(4-(5,5-dimethylmorpholin-3-yl)phenyl)-3,7-dihydro-4H-pyrrolo[2,3-d]pyrimidin-4-one] the IC50 [1] was 0.1 to 0.25 µM and the IC50 [2] was 0.249 µM.
`C[C@H]1CN[C@H](c2ccc(-n3c(Cl)cc4c(=O)n(CC5(O)CCN(C(=O)/C=C/c6ccccc6)CC5)cnc43)cc2)CO1` [Example 63, 6-Chloro-3-((1-cinnamoyl-4-hydroxypiperidin-4-yl)methyl)-7-(4-((3R,6S)-6-methylmorpholin-3-yl)phenyl)-3,7-dihydro-4H-pyrrolo[2,3-d]pyrimidin-4-one] gave an IC50 [1] of 0.1 to 0.25 µM and an IC50 [2] of 0.221 µM.
`CC1(C)CN[C@H](c2ccc(-n3c(Cl)cc4c(=O)n(CC5(O)CCN(C(=O)C6(C7CC7)CC6)CC5)cnc43)cc2)CO1` (single isomer, unassigned) [Example 41] was tested, and the IC50 [1] was < 0.1 µM and the IC50 [2] was 0.079 µM.
`CC1(C)CN[C@@H](c2ccc(-n3c(Cl)cc4c(=O)n(CC5(O)CCN(C(=O)C[C@H](c6ccccc6)C(F)(F)F)CC5)cnc43)cc2)CO1` (mixture of isomers) [Example 10, 6-Chloro-7-(4-((S)-6,6-dimethylmorpholin-3-yl)phenyl)-3-((4-hydroxy-1-((R)-4,4,4-trifluoro-3-phenylbutanoyl)piperidin-4-yl)methyl)-3,7-dihydro-4H-pyrrolo[2,3-d]pyrimidin-4-one and 6-chloro-7-(4-((R)-6,6-dimethylmorpholin-3-yl)phenyl)-3-((4-hydroxy-1-((R)-4,4,4-trifluoro-3-phenylbutanoyl)piperidin-4-yl)methyl)-3,7-dihydro-4H-pyrrolo[2,3-d]pyrimidin-4-one] was tested, and the IC50 [1] was < 0.1 µM and the IC50 [2] was 0.017 µM.
Compound `Cc1cc(-n2c(Cl)cc3c(=O)n(CC4(O)CCN(C(=O)c5ccccc5Cl)CC4)cnc32)ccc1[C@H]1CO[C@H](C)CN1` [Example 52, 6-Chloro-3-((1-(2-chlorobenzoyl)-4-hydroxypiperidin-4-yl)methyl)-7-(3-methyl-4-((3S,6R)-6-methylmorpholin-3-yl)phenyl)-3,7-dihydro-4H-pyrrolo[2,3-d]pyrimidin-4-one] has an IC50 [1] of 0.1 to 0.25 µM and an IC50 [2] of 0.179 µM.
`C[C@@H]1COC[C@H](c2ccc(-n3c(Cl)cc4c(=O)n(CC5(O)CCN(C(=O)c6ccc(Cl)cc6)CC5)cnc43)cc2)N1` (single isomer, unassigned) [Example 27] was tested, and the IC50 [1] was 0.1 to 0.25 µM and the IC50 [2] was 0.194 µM.
`Cc1cc(Cl)ccc1C(=O)N1CCC(O)(Cn2cnc3c(cc(Cl)n3-c3ccc([C@H]4CO[C@H](C)CN4)c(C)c3)c2=O)CC1` [Example 89, 6-Chloro-3-((1-(4-chloro-2-methylbenzoyl)-4-hydroxypiperidin-4-yl)methyl)-7-(3-methyl-4-((3S,6R)-6-methylmorpholin-3-yl)phenyl)-3,7-dihydro-4H-pyrrolo[2,3-d]pyrimidin-4-one] was tested, and the IC50 [1] was 0.1 to 0.25 µM and the IC50 [2] was 0.204 µM.
For `C[C@H]1CN[C@H](c2ccc(-n3c(Cl)cc4c(=O)n(CC5(O)CCN(C(=O)c6ccc(Cl)cc6F)CC5)cnc43)cc2)CO1` [Example 30, 6-Chloro-3-((1-(4-chloro-2-fluorobenzoyl)-4-hydroxypiperidin-4-yl)methyl)-7-(4-((3R,6S)-6-methylmorpholin-3-yl)phenyl)-3,7-dihydro-4H-pyrrolo[2,3-d]pyrimidin-4-one], the IC50 [1] was 0.1 to 0.25 µM and the IC50 [2] was 0.164 µM.
